Experimental findings from patent US10392428B2, “GLP-1 derivatives and uses thereof” (Novo Nordisk A/S, priority 2014, dated 2019) are described below.

The target in one data set is T1, human GLP-1 receptor (Homo sapiens, UniProt P43220).
T1 construct: expressed in transfected cells; host or cells: membrane preparation from BHK cells, clone FCW467-12A (parent line BHKTS13)
As to the kind of experiment: GLP-1 receptor binding: competitive binding assay (125I-GLP-1, SPA) on isolated membranes at low and high HSA.

Data set [1] in a line: Pharmacokinetic study in minipigs (i.v.). The note with it: male, Göttingen, minipig, in vivo, iv, minipigs, i.v., harmonic mean, read-out: Terminal half-live (converted). The method, then: The derivatives of Examples 12, 14, and 15 were dosed 2 nmol/kg. The derivatives of Examples 1 and 2 were dosed 15 nmol/kg.
Where [2] appears, read: High HSA IC50 (nM), high HSA (2.0% final assay concentration).

Where two headings read alike, the source gives them in different places. Non-standard residues stand in square brackets, D forms with d. Residues, ends and D or L forms follow the SMILES beside them. Groups on a side chain read outwards from the residue. *: point of attachment. X1 = O=C(O)CCCCCCCCCCCCCCCCCCC(=O)NC[C@H]1CC[C@H](C(=O)N[C@@H](CCC(=O)NCCOCCOCC(=O)NCCOCCOCC(=O)NCCCC[C@H](NC(=O)COCCOCCNC(=O)COCCOCCNC(=O)CC[C@H](NC(=O)[C@H]2CC[C@H](CNC(=O)CCCCCCCCCCCCCCCCCCC(=O)O)CC2)C(=O)O)C(=O)*)C(=O)O)CC1; Desaminohistidyl = O=C(CCc1c[nH]cn1)*; AEEA = NCCOCCOCC(=O)O; Aib = CC(C)(N)C(=O)O

T1 sequence (P43220 24-463): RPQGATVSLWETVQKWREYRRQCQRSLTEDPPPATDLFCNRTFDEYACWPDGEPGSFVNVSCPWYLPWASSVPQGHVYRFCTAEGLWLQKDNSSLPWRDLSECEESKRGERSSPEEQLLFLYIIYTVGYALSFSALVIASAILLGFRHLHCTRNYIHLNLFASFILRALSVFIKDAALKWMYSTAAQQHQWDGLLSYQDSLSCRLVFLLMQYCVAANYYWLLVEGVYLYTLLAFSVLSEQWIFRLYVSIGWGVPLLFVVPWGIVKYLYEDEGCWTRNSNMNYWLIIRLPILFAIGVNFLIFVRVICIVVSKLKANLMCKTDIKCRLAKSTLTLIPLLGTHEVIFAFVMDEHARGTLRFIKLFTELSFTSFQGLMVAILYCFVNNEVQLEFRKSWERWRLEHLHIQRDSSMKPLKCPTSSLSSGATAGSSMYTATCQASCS
Protocol for human GLP-1 receptor: The purpose of this example is to test the receptor binding of the GLP-1 derivatives in vitro. The receptor binding is a measure of affinity of a derivative for the human GLP-1 receptor.
Each derivative is added in a series of concentrations to isolated membranes containing the human GLP-1 receptor and displacement of the labelled ligand is monitored. The receptor binding is reported as the concentration at which half of the labelled ligand is displaced from the receptor, the IC50 value.
Buffer 1 consisted of 20 mM Na-HEPES plus 10 mM EDTA and pH was adjusted to 7.4. Buffer 2 consisted of 20 mM Na-HEPES plus 0.1 mM EDTA and pH was adjusted to 7.4. Assay buffer consisted of 50 mM HEPES supplemented with 5 mM EGTA, 5 mM MgCl2, 0.005% Tween 20 and pH was adjusted to 7.4. An 8% albumin stock consisted of HSA dissolved at 8% (w/v) in assay buffer. An 0.02% albumin stock consisted of HSA dissolved at 0.02% (w/v) in assay buffer.
The cells express the human GLP-1 receptor.
The cells were grown at 5% CO2 in DMEM, 10% fetal calf serum, 1% Pen/Strep (Penicillin/Streptomycin) and 1.0 mg/ml of the selection marker G418.
To make a membrane preparation the cells were grown to approximately 80% confluence. The cells were washed twice in phosphate-buffered saline and harvested. The cells were pelleted using a brief centrifugation and the cell pellet was kept on ice. […] The homogenate was centrifuged for 15 minutes. The pellet was re-suspended (homogenised) in 10 ml buffer 2 and centrifuged. This step was repeated once more. The resulting pellet was re-suspended in buffer 2 and the protein concentration was determined. The membranes were aliquoted and stored at minus 80° C.
For the receptor binding assay in the presence of low HSA (0.005%) 50 μl of the assay buffer was added to each well of an assay plate.
For the receptor binding assay in the presence of high HSA (2%) 50 μl of the 8% albumin stock was added to each well of an assay plate.
Cell membrane aliquots were thawed and diluted to their working concentration. Fifty μl were added to each well in the assay plate.
WGA SPA beads were suspended in assay buffer at 20 mg/ml. The suspension was diluted to 10 mg/ml in assay buffer just prior to addition to the assay plate. Fifty μl were added to each well in the assay plate.
A 25 μl aliquot was reserved for measuring total counts/well.
The assay plate was incubated for 2 h at 30° C.
The assay plate was centrifuged for 10 min.
The assay plate was read in a Packard TopCount NXT instrument.
The data from the TopCount instrument were transferred to Graph Pad Prism software. Individual replicates were analysed using non-linear regression. IC50 values were calculated by the software and reported in nM. The reported values are averages of all of the measured values for each compound.

In the case of `CC[C@H](C)[C@H](NC(=O)[C@H](Cc1ccccc1)NC(=O)[C@H](CCC(=O)O)NC(=O)[C@H](CCCNC(=N)N)NC(=O)[C@H](C)NC(=O)[C@H](C)NC(=O)[C@H](CCC(N)=O)NC(=O)[C@H](CCC(=O)O)NC(=O)[C@H](CCC(=O)O)NC(=O)[C@H](CC(C)C)NC(=O)[C@H](Cc1ccc(O)cc1)NC(=O)[C@H](CO)NC(=O)[C@H](CO)NC(=O)[C@@H](NC(=O)[C@H](CC(=O)O)NC(=O)[C@H](CO)NC(=O)[C@@H](NC(=O)[C@H](Cc1ccccc1)NC(=O)[C@@H](NC(=O)CNC(=O)[C@H](CCC(=O)O)NC(=O)C(C)(C)NC(=O)[C@@H](N)Cc1c[nH]cn1)[C@@H](C)O)[C@@H](C)O)C(C)C)C(=O)N[C@@H](C)C(=O)N[C@@H](Cc1c[nH]c2ccccc12)C(=O)N[C@@H](CC(C)C)C(=O)N[C@H](C(=O)N[C@@H](CCCNC(=N)N)C(=O)NCC(=O)N[C@@H](CCCNC(=N)N)C(=O)N[C@@H](CCCCNC(=O)[C@@H](N)CCCCNC(=O)[C@@H](N)CCCCNC(=O)[C@H](CCCCNC(=O)CC[C@H](NC(=O)[C@H]1CC[C@H](CNC(=O)CCCCCCCCCCCCCCCCCCC(=O)O)CC1)C(=O)O)NC(=O)CC[C@H](NC(=O)[C@H]1CC[C@H](CNC(=O)CCCCCCCCCCCCCCCCCCC(=O)O)CC1)C(=O)O)C(=O)O)C(C)C` [Example 9, N{Epsilon-37}-[(2S)-2-amino-6-[[(2S)-2-amino-6-[[(2S)-2,6-bis[[(4S)-4-carboxy-4-[[4-[(19-carboxynonadecanoylamino)methyl]cyclohexanecarbonyl]amino]butanoyl]amino]hexanoyl]amino]hexanoyl]amino]hexanoyl]-[Aib8,Glu22,Arg26,Arg34,Lys37]-GLP-1-(7-37)-peptide], the IC50 – broadly, the midpoint of a concentration-inhibition curve – on human GLP-1 receptor (setting [2]) was 150 nM.

For the compound `CC[C@H](C)[C@H](NC(=O)[C@H](Cc1ccccc1)NC(=O)[C@H](CCC(=O)O)NC(=O)[C@H](CCCNC(=N)N)NC(=O)[C@H](C)NC(=O)[C@H](C)NC(=O)[C@H](CCC(N)=O)NC(=O)[C@H](CCC(=O)O)NC(=O)[C@H](CCC(=O)O)NC(=O)[C@H](CC(C)C)NC(=O)[C@H](Cc1ccc(O)cc1)NC(=O)[C@H](CO)NC(=O)[C@H](CO)NC(=O)[C@@H](NC(=O)[C@H](CC(=O)O)NC(=O)[C@H](CO)NC(=O)[C@@H](NC(=O)[C@H](Cc1ccccc1)NC(=O)[C@@H](NC(=O)CNC(=O)[C@H](CCC(=O)O)NC(=O)C(C)(C)NC(=O)[C@@H](N)Cc1c[nH]cn1)[C@@H](C)O)[C@@H](C)O)C(C)C)C(=O)N[C@@H](C)C(=O)N[C@@H](Cc1c[nH]c2ccccc12)C(=O)N[C@@H](CC(C)C)C(=O)N[C@H](C(=O)N[C@@H](CCCNC(=N)N)C(=O)NCC(=O)N[C@@H](CCCNC(=N)N)C(=O)N[C@@H](CCCCNC(=O)COCCOCCNC(=O)COCCOCCNC(=O)COCCOCCNC(=O)COCCOCCNC(=O)[C@H](CCCCNC(=O)COCCOCCNC(=O)CC[C@H](NC(=O)[C@H]1CC[C@H](CNC(=O)CCCCCCCCCCCCCCCCCCC(=O)O)CC1)C(=O)O)NC(=O)COCCOCCNC(=O)CC[C@H](NC(=O)[C@H]1CC[C@H](CNC(=O)CCCCCCCCCCCCCCCCCCC(=O)O)CC1)C(=O)O)C(=O)O)C(C)C` [Example 21, N{Epsilon-37}-[2-[2-[2-[[2-[2-[2-[[2-[2-[2-[[2-[2-[2-[[(2S)-2,6-bis[[2-[2-[2-[[(4S)-4-carboxy-4-[[4-[(19-carboxynonadecanoylamino)methyl]cyclohexanecarbonyl]amino]butanoyl]amino]ethoxy]ethoxy]acetyl]amino]hexanoyl]amino]ethoxy]ethoxy]acetyl]amino]ethoxy]ethoxy]acetyl]amino]ethoxy]ethoxy]acetyl]amino]ethoxy]ethoxy]acetyl]-[Aib8,Glu22,Arg26,Arg34,Lys37]-GLP-1-(7-37)-peptide], the 50% inhibitory concentration (IC50) was 19 nM at human GLP-1 receptor (setting [2]) and 1.5 nM on human GLP-1 receptor (Low HSA IC50 (nM), low HSA (max. 0.001% final assay concentration)).

As for `CC[C@H](C)[C@H](NC(=O)[C@H](Cc1ccccc1)NC(=O)[C@H](CCC(=O)O)NC(=O)[C@H](CCCNC(=N)N)NC(=O)[C@H](C)NC(=O)[C@H](C)NC(=O)[C@H](CCC(N)=O)NC(=O)[C@H](CCC(=O)O)NC(=O)[C@H](CCC(=O)O)NC(=O)[C@H](CC(C)C)NC(=O)[C@H](Cc1ccc(O)cc1)NC(=O)[C@H](CO)NC(=O)[C@H](CO)NC(=O)[C@@H](NC(=O)[C@H](CC(=O)O)NC(=O)[C@H](CO)NC(=O)[C@@H](NC(=O)[C@H](Cc1ccccc1)NC(=O)[C@@H](NC(=O)CNC(=O)[C@H](CCC(=O)O)NC(=O)C(C)(C)NC(=O)[C@@H](N)Cc1c[nH]cn1)[C@@H](C)O)[C@@H](C)O)C(C)C)C(=O)N[C@@H](C)C(=O)N[C@@H](Cc1c[nH]c2ccccc12)C(=O)N[C@@H](CC(C)C)C(=O)N[C@H](C(=O)N[C@@H](CCCNC(=N)N)C(=O)NCC(=O)N[C@@H](CCCNC(=N)N)C(=O)N[C@@H](CCCCNC(=O)COCCOCCNC(=O)COCCOCCNC(=O)[C@H](CCCCNC(=O)COCCOCCNC(=O)COCCOCCNC(=O)COCCOCCNC(=O)COCCOCCNC(=O)CC[C@H](NC(=O)[C@H]1CC[C@H](CNC(=O)CCCCCCCCCCCCCCCCCCC(=O)O)CC1)C(=O)O)NC(=O)COCCOCCNC(=O)COCCOCCNC(=O)COCCOCCNC(=O)COCCOCCNC(=O)CC[C@H](NC(=O)[C@H]1CC[C@H](CNC(=O)CCCCCCCCCCCCCCCCCCC(=O)O)CC1)C(=O)O)C(=O)O)C(C)C` [Example 14], the half-life in data set [1] (2 nmol/kg) is 135 h.

Take `CC[C@H](C)[C@H](NC(=O)[C@H](Cc1ccccc1)NC(=O)[C@H](CCC(=O)O)NC(=O)[C@H](CCCNC(=N)N)NC(=O)[C@H](C)NC(=O)[C@H](C)NC(=O)[C@H](CCC(N)=O)NC(=O)[C@H](CCC(=O)O)NC(=O)[C@H](CCC(=O)O)NC(=O)[C@H](CC(C)C)NC(=O)[C@H](Cc1ccc(O)cc1)NC(=O)[C@H](CO)NC(=O)[C@H](CO)NC(=O)[C@@H](NC(=O)[C@H](CC(=O)O)NC(=O)[C@H](CO)NC(=O)[C@@H](NC(=O)[C@H](Cc1ccccc1)NC(=O)[C@@H](NC(=O)CNC(=O)[C@H](CCC(=O)O)NC(=O)C(C)(C)NC(=O)[C@@H](N)Cc1c[nH]cn1)[C@@H](C)O)[C@@H](C)O)C(C)C)C(=O)N[C@@H](C)C(=O)N[C@@H](Cc1c[nH]c2ccccc12)C(=O)N[C@@H](CC(C)C)C(=O)N[C@H](C(=O)N[C@@H](CCCNC(=N)N)C(=O)NCC(=O)N[C@@H](CCCNC(=N)N)C(=O)N[C@@H](CCCCNC(=O)COCCOCCNC(=O)COCCOCCNC(=O)[C@H](CCCCNC(=O)COCCOCCNC(=O)COCCOCCNC(=O)CC[C@H](NC(=O)[C@H]1CC[C@H](CNC(=O)CCCCCCCCCCCCCCCCCCC(=O)O)CC1)C(=O)O)NC(=O)COCCOCCNC(=O)COCCOCCNC(=O)CC[C@H](NC(=O)[C@H]1CC[C@H](CNC(=O)CCCCCCCCCCCCCCCCCCC(=O)O)CC1)C(=O)O)C(=O)O)C(C)C` [Example 2, N{Epsilon-37}-[2-[2-[2-[[2-[2-[2-[[(2S)-2,6-bis[[2-[2-[2-[[2-[2-[2-[[(4S)-4-carboxy-4-[[4-[(19-carboxynonadecanoylamino)methyl]cyclohexanecarbonyl]amino]butanoyl]amino]ethoxy]ethoxy]acetyl]amino]ethoxy]ethoxy]acetyl]amino]hexanoyl]amino]ethoxy]ethoxy]acetyl]amino]ethoxy]ethoxy]acetyl]-[Aib8,Glu22,Arg26,Arg34,Lys37]-GLP-1-(7-37)-peptide]: the half-life in data set [1] (15 nmol/kg) is 130 h.

For `CC[C@H](C)[C@H](NC(=O)[C@H](Cc1ccccc1)NC(=O)[C@H](CCC(=O)O)NC(=O)[C@H](CCCNC(=N)N)NC(=O)[C@H](C)NC(=O)[C@H](C)NC(=O)[C@H](CCC(N)=O)NC(=O)[C@H](CCC(=O)O)NC(=O)[C@H](CCC(=O)O)NC(=O)[C@H](CC(C)C)NC(=O)[C@H](Cc1ccc(O)cc1)NC(=O)[C@H](CO)NC(=O)[C@H](CO)NC(=O)[C@@H](NC(=O)[C@H](CC(=O)O)NC(=O)[C@H](CO)NC(=O)[C@@H](NC(=O)[C@H](Cc1ccccc1)NC(=O)[C@@H](NC(=O)CNC(=O)[C@H](CCC(=O)O)NC(=O)C(C)(C)NC(=O)CCc1cnc[nH]1)[C@@H](C)O)[C@@H](C)O)C(C)C)C(=O)N[C@@H](C)C(=O)N[C@@H](Cc1c[nH]c2ccccc12)C(=O)N[C@@H](CC(C)C)C(=O)N[C@H](C(=O)N[C@@H](CCCNC(=N)N)C(=O)NCC(=O)N[C@@H](CCCNC(=N)N)C(=O)NCC(=O)NCC(=O)N[C@@H](CCCCNC(=O)COCCOCCNC(=O)COCCOCCNC(=O)[C@H](CCCCNC(=O)COCCOCCNC(=O)COCCOCCNC(=O)CC[C@H](NC(=O)[C@H]1CC[C@H](CNC(=O)CCCCCCCCCCCCCCCCCCC(=O)O)CC1)C(=O)O)NC(=O)COCCOCCNC(=O)COCCOCCNC(=O)CC[C@H](NC(=O)[C@H]1CC[C@H](CNC(=O)CCCCCCCCCCCCCCCCCCC(=O)O)CC1)C(=O)O)C(=O)O)C(C)C` [Example 7, [Imp7,Aib8,Glu22,Arg26,Arg34]-GLP-1-(7-37)-peptidyl-Gly-N{Epsilon}[2-[2-[2-[[2-[2-[2-[[(2S)-2,6-bis[[2-[2-[2-[[2-[2-[2-[[(4S)-4-carboxy-4-[[4-[(19-carboxynonadecanoylamino)methyl]cyclohexanecarbonyl]amino]butanoyl]amino]ethoxy]ethoxy]acetyl]amino]ethoxy]ethoxy]acetyl]amino]hexanoyl]amino]ethoxy]ethoxy]acetyl]amino]ethoxy]ethoxy]acetyl]Lys] (Desaminohistidyl-[Aib]EGTFTSDVSSYLEEQAAREFIAWLVRGRGGK([AEEA-AEEA-X1])-OH; C-terminus assumed), the half-life in data set [1] (5 nmol/kg) was 134 h.
